Tests used:
Format in all cases: biochemical
Settings in all cases: Table 8
[1] = system: Rabbit Skeletal myofibrils (rabbit psoas muscle); experiment: Myofibril ATPase assay (PK/LDH NADH-coupled), skeletal myofibrils
Description: (§1) Myofibril ATPase assays are known in the art to be useful in evaluating small molecules for the treatment of HCM and other cardiac indications. Myosin ATPase activity is assessed by using a coupled reaction system, in which ADP generated by the myosin ATPase function is coupled to the disappearance of NADH through the pyruvate kinase/lactate dehydrogenase (PK-LDH) system. ATPase activity produces ADP, which is used as a substrate for PK to produce pyruvate and regenerate ATP. The pyruvate is then used as a substrate by LDH to oxidize NADH to NAD+. The rate of the reaction is monitored through the time-dependent disappearance of NADH using absorbance at 340 nm, which, when the couple system is in stoichiometric excess, is directly correlated to the ATPase activity of the myosin. Inhibition of ATPase activity by the assayed compounds is indicated by a reduced rate of NADH loss, relative to vehicle-treated controls, over the experimental time window. Rabbit Skeletal and Porcine Ventricle are the primary sources of myofibril material.
(§2) Materials: The following stock solutions and reagents were used in the Myofibril ATPase Assay:
(§3) Stock Solutions of pCa buffer. Combine PIPES, CaCl2), and EGTA solutions with water. Adjust pH to 7.0 and bring final volume to 100 mL.
(§4) Buffer A & Buffer B. Prepare buffers A and B according to the table below.
(§5) Myofibril ATPase Assay Procedure: BSA, ATP, NADH, PEP, and DTT solutions were thawed at room temperature, then transferred to ice. Pellet-frozen myofibrils were transferred with approximately twice the required volume into a sufficiently large tube and capped. Myofibrils were thawed by rolling in a water bath for approximately 15 min at room temperature and cooled on ice. Buffers A and B were prepared by adjusting volumes as necessary for required number of wells and stored on ice. 0.5 μL of the compounds to be assayed were added into wells. 25 μL of Buffer A was dispensed into the wells, followed by 25 μL of Buffer B. The wells were measured for absorbance at 340 nm, using a kinetic protocol in which the wells are read every 1.5-2 min for 75 min. Assay data analysis was performed using a python script that filtered the raw data to retain those points falling between a starting and ending time and between a maximum and minimum absorbance, then used the filtered time-domain 340 nm absorbance data in each well to calculate a slope via linear regression analysis in units of mAU/min. Compound slopes were normalized between 100% and 0% activity, where 100% represented the slope of wells containing only compound vehicle, and fit to a 4-parameter logistic model. In addition to the fit parameters, the EC25% is calculated, relative to the 100% normalized value. In the case of inhibitors, EC50% is also calculated, if available. Fit parameters, calculated effective concentrations, filtered raw data, and calculated slopes were exported, in addition to compound-specific graphs of normalized ATPase activity versus concentration in μM.
Skeletal Myofibril Isolation:
Myofibrils from various animals and tissue types were acquired from a variety of sources: rabbit psoas muscle was purchased from Pel-Freez Biologicals (Rogers, AR) and porcine cardiac muscle was purchased from Exemplar Genetics. All myofibrils were prepared using a method based upon those described in Herrmann et al. (1993) and summarized here. Minced tissue was homogenized for 50 sec with a Polytron homogenizer into 10 volumes (relative to weight in grams) of Isolation Buffer A (50 mM Tris, pH 8.0, 0.1 M potassium acetate, 5 mM KCl, 2 mM DTT, 5 mM EDTA, 0.5% v/v Triton X-100) supplemented with 0.1 mM PMSF, 10 μM leupeptin, 5 μM pepstatin, and 0.5 mM sodium azide. The myofibrils were recovered by centrifugation (Beckman Allegra 6R, 1200 g, 10 min) and resuspended in 10 volumes Isolation Buffer B (Buffer A above without protease inhibitors or sodium azide). The myofibrils were further homogenized as before and recovered by centrifugation. […]

[2] = molecular target: T1, Porcine Ventricle myofibrils (left ventricle of Yucatan minipigs) (Sus scrofa, UniProt P79293); experiment: Myofibril ATPase assay (PK/LDH NADH-coupled), ventricle myofibrils
T1 construct: Myofibrils from porcine cardiac muscle was isolated from the left ventricle of Yucatan minipigs; tissue Exemplar Genetics; host or cells: left ventricle of Yucatan minipigs
Description: as §1, §2, §3, §4, §5
Cardiac Myofibril Isolation:
Myofibrils from porcine cardiac muscle was isolated from the left ventricle of Yucatan minipigs. Myofibrils were prepared using a method based upon those described in Herrmann et al. (1993) and summarized here. Minced tissue was homogenized for 50 sec with a Polytron homogenizer into 10 volumes (relative to weight in grams) of Isolation Buffer A (75 mM KCl, 10 mM Imidazole, 2 mM MgCl2, 2 mM EGTA, 1 mM NaN3, 1% v/v Triton X-100) supplemented with 4 mM Phosphocreatine, 1 mM ATP, 50 mM BDM, 1 mM DTT, 1 mM Benzamide HCl, 0.1 mM PMSF, 10 μM leupeptin, 5 μM pepstatin, and 10 mM EDTA. The myofibrils were recovered by centrifugation (Beckman Allegra 6R, 1200 g, 15 min) and resuspended in 10 volumes Isolation Buffer B (Buffer A above without supplemental reagents). The myofibrils were further homogenized described above and recovered by centrifugation for 7 mins. Cellular membranes and debris were removed by 3 washes in Isolation Buffer B, centrifuging each as before. […]

[3] = system: Porcine Atria myofibrils; experiment: Myofibril ATPase assay (PK/LDH NADH-coupled), atria myofibrils
Description: as §5

T1 sequence (P79293 whole entry): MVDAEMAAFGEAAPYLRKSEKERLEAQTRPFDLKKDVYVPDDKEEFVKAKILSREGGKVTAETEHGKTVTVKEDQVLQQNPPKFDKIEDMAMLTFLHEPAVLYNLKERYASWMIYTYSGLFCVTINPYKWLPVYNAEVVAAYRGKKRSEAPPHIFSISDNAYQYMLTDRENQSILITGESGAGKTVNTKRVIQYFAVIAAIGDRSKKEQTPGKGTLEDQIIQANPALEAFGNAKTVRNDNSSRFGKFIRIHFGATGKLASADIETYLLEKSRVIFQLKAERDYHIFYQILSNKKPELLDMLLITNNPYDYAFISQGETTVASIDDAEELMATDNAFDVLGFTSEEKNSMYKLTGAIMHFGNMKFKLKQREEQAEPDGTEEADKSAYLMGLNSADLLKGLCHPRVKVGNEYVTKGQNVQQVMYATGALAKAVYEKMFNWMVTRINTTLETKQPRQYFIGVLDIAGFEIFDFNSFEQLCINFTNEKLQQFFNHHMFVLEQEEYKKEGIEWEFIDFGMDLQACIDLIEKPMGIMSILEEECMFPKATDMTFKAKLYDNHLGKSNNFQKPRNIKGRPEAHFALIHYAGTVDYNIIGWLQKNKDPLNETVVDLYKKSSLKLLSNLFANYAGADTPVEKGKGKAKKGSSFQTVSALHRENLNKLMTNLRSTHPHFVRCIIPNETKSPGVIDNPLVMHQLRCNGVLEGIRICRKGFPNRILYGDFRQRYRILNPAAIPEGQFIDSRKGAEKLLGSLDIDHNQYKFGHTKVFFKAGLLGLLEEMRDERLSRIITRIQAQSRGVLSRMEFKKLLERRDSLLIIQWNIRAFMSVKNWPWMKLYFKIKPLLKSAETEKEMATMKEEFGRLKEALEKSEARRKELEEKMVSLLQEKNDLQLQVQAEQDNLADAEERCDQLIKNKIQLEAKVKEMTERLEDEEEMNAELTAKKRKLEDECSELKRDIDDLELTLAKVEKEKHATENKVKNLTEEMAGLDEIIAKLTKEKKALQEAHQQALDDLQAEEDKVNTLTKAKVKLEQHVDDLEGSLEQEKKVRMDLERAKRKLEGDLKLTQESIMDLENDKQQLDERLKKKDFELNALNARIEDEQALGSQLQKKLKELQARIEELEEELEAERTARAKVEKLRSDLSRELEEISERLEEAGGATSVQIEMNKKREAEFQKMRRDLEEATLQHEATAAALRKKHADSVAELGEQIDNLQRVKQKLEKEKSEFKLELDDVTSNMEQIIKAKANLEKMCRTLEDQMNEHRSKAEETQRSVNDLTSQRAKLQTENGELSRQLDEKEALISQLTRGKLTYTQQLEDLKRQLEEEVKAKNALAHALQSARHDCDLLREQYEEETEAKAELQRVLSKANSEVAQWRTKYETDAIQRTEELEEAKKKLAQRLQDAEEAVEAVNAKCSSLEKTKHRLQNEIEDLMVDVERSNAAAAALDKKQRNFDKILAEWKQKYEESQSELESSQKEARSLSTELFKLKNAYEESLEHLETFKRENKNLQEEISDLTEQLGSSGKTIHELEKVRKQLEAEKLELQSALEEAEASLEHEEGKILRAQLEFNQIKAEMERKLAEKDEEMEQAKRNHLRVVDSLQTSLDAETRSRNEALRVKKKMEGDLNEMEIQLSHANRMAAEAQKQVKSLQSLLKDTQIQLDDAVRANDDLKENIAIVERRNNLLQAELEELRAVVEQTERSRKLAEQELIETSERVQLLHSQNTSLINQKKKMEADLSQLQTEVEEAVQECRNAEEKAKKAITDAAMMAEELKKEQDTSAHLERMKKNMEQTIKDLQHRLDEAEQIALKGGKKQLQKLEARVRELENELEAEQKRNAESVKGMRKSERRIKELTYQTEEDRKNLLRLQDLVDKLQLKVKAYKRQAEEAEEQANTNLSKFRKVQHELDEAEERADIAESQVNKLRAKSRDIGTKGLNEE

Compound | Rabbit Psoas IC25 [1] | Porcine Ventricle IC25 [2] | Porcine Atria IC25 [3]
Cc1cc(C#N)nnc1C(C)NC(=O)CN1Cc2c(ccc(F)c2F)NC1=O (single isomer, unassigned) [Compound B23] | 12.4 nM | 34.7 nM | 40 nM
Cc1ccnnc1C(C)NC(=O)CN1Cc2c(ccc(F)c2F)NC1=O (single isomer, unassigned) [Compound B25] | 4823 nM | 2494 nM | 700 nM
Cc1nc(C#N)ncc1[C@@H](C)NC(=O)CN1Cc2c(ccc(F)c2F)NC1=O [Compound B1] | 20.1 nM | 59.9 nM | 90 nM
Cc1nc(C#N)ncc1[C@H](C)NC(=O)CN1Cc2c(ccc(F)c2F)NC1=O [Compound B2] | 5739 nM | 7734 nM | 960 nM
Cc1nsc([C@H](C)NC(=O)CN2Cc3c(ccc(F)c3F)NC2=O)n1 [Compound B3] | 100000 nM | 52510 nM | 34810 nM
N#Cc1cnc2c(c1)COC[C@H]2NC(=O)CN1Cc2c(ccc(F)c2F)NC1=O [Compound B4] | 131.8 nM | 116.1 nM | 70 nM
N#Cc1cnc2c(c1)COC[C@@H]2NC(=O)CN1Cc2c(ccc(F)c2F)NC1=O [Compound B5] | 4565 nM | 100000 nM | 100000 nM
O=C(CN1Cc2c(ccc(F)c2F)NC1=O)N[C@@H]1COc2cc(F)cnc21 [Compound B6] | 123.2 nM | 148.3 nM | 70 nM
O=C(CN1Cc2c(ccc(F)c2F)NC1=O)N[C@H]1COc2cc(F)cnc21 [Compound B7] | 29140 nM | 2786 nM | 450 nM
Cc1cc(C#N)cnc1[C@@H](C)NC(=O)CN1Cc2c(ccc(F)c2F)NC1=O [Compound B8] | 1018 nM | 603.9 nM | 430 nM
Cc1cc(C#N)cnc1[C@H](C)NC(=O)CN1Cc2c(ccc(F)c2F)NC1=O [Compound B9] | 22.4 nM | 37.9 nM | 40 nM
C[C@@H](NC(=O)CN1Cc2c(F)cc(C#N)cc2NC1=O)c1ccc(C#N)cc1F [Compound B10] | 29080 nM | 8204 nM | 100000 nM
C[C@H](NC(=O)CN1Cc2c(F)cc(C#N)cc2NC1=O)c1ccc(C#N)cc1F [Compound B11, N-[(1S)-1-(4-Cyano-2-fluorophenyl)ethyl]-2-(7-cyano-5-fluoro-2-oxo-1,4-dihydroquinazolin-3-yl)acetamide] | 49640 nM | 100000 nM | 100000 nM

Second part, the compound after the results:

Rabbit Psoas IC25 [1] | Porcine Ventricle IC25 [2] | Porcine Atria IC25 [3] | Compound
21.07 nM | 1558 nM | 210 nM | C[C@H](NC(=O)CN1C(=O)Nc2ccc(F)c(F)c2[C@@H]1C)c1ccc(F)cc1F (relative stereo) [Compound B231, 2-[(4S*)-5,6-Difluoro-4-methyl-2-oxo-1,4-dihydroquinazolin-3-yl]-N-[(1S)-1-(2,4-difluorophenyl)ethyl]acetamide]
32.8 nM | 396.3 nM | 40 nM | C[C@H](NC(=O)CN1C(=O)Nc2ccc(F)c(F)c2[C@H]1C)c1ccc(F)cc1F (relative stereo) [Compound B232, 2-[(4R*)-5,6-Difluoro-4-methyl-2-oxo-1,4-dihydroquinazolin-3-yl]-N-[(1S)-1-(2,4-difluorophenyl)ethyl]acetamide]
1252 nM | 948 nM | 580 nM | Cc1cc([C@H](C)NC(=O)CN2Cc3c(ccc(F)c3F)NC2=O)ncc1C#N (single isomer, unassigned) [Compound B35]
100000 nM | 96660 nM | 100000 nM | Cc1cnncc1C(C)NC(=O)CN1Cc2c(ccc(F)c2F)NC1=O (single isomer, unassigned) [Compound B47]
100000 nM | 7534 nM | 90 nM | CC(NC(=O)CN1Cc2c(ccc(F)c2F)NC1=O)c1cc(C#N)c(F)cn1 (single isomer, unassigned) [Compound B53]
7017 nM | 9364 nM | 43940 nM | CC(C)C[C@H](C(=O)N[C@H](C)c1ccc(F)cc1F)N1Cc2cc(F)ccc2NC1=O (single isomer, unassigned) [Compound B67]
3174 nM | 298.7 nM | 610 nM | Cc1cc(C(C)NC(=O)CN2Cc3c(ccc(F)c3F)NC2=O)ncc1F (single isomer, unassigned) [Compound B69]
100000 nM | 100000 nM | 1240 nM | CC(NC(=O)CN1Cc2c(ccc(F)c2F)NC1=O)c1cc2c(cn1)OCCN2C (single isomer, unassigned) [Compound B74]
5359 nM | 346.5 nM | 390 nM | O=C(CN1Cc2c(ccc(F)c2F)NC1=O)NC1COCc2cc(F)ccc21 (single isomer, unassigned) [Compound B76]
1110 nM | 2048 nM | 190 nM | O=C(CN1Cc2c(ccc(F)c2F)NC1=O)NC1COc2ccc(F)cc2C1 (single isomer, unassigned) [Compound B87]
2863 nM | 79130 nM | 2450 nM | CC1c2ccccc2NC(=O)N1CC(=O)N[C@@H](CO)c1ccc(F)cc1F (single isomer, unassigned) [Compound B200, N-[(1R)-1-(2,4-difluorophenyl)-2-hydroxyethyl]-2-[(4R*)-4-methyl-2-oxo-1,4-dihydroquinazolin-3-yl]acetamide]
100000 nM | 100000 nM | 100000 nM | O=C(CN1Cc2c(ccc(F)c2F)NC1=O)N[C@H]1CCc2cc(F)cnc21 (single isomer, unassigned) [Compound B351]
4450 nM | 2360 nM | 610 nM | Cc1nc([C@@H](C)NC(=O)CN2Cc3c(ccc(F)c3F)NC2=O)ncc1C#N (single isomer, unassigned) [Compound B352]
100000 nM | 100000 nM |  | COc1cnc([C@H](C)NC(=O)CN2Cc3cc(F)ccc3NC2=O)c(F)c1 [Compound B179]

Source: patent publication US12509431B2, “1,4-dihydroquinazolinone compounds and uses thereof” (Edgewise Therapeutics, Inc., priority 2022, dated 2025)
